This note sets out measurements from article PMC10313368 (The Journal of Clinical Investigation, 2023).

One test concerns the target T1, HIF-2α (Mus musculus, UniProt P97481).
T1 construct: from tissue; host or cells: retina of C57BL/6 OIR pups
As to the kind of experiment: Western blot of HIF-2α protein accumulation in retina of OIR mice (P14). Format: in vivo. The method, then: (§1) Immunoblot assays. Cells, neurosensory retina, and D120 retinal organoid lysates were subjected to 4–15% gradient SDS/PAGE (Invitrogen). Immunoblot (Western blot or WB) assays were performed as previously described (1).
(§2) Reverse transcription and quantitative real-time PCR. Total RNA was isolated from cultured cells or retinas with PureLinkTM RNA Mini Kit (Invitrogen #12183025), and cDNA was prepared with MuLV Reverse Transcriptase (Applied Biosystems). Quantitative real-time PCR was performed with Power SYBR Green PCR Master Mix (Applied Biosystems) and MyiQ Real-Time PCR Detection System (Bio-Rad). Normalization was done using cyclophilin A for mouse tissue and human cell lines. Primers are listed in Supplemental Table 2.
Angiogenesis array. […]
(§3) cDNA was prepared with QuantiTect® Reverse Transcription Kit (Qiagen, Cat# 205311). […]
4444554). […] The data were analyzed by using HPRT1 as endogenous […]
HUVEC cells, Euclidean distance was used to quantify the difference in qPCR screening. The Euclidean distance was calculated using “dist” function from R’s default stat library that measures the distance between 2 vectors (i.e., total qPCR expression values in control and treatment). […]
(§4) STZ-induced diabetes mouse model. […] Blood glucose was measured on experimental day 28 after 16 hours fasting and mice with blood glucose level > 250 mg/dL were considered […]

Another test deals with T2, HIF-1α (Mus musculus, UniProt Q61221).
T2 construct: from tissue; host or cells: retina of C57BL/6 OIR pups
As to the kind of experiment: Western blot of HIF-1α in neurosensory retina of STZ-diabetic mice. Format: in vivo. The following applies: IP 32-134D 40 or 80 mg/kg; Supplementary Figure 3. The procedure:
as §1, §2
Angiogenesis array. Total RNA was isolated from MIO-MI cells (8 hours) and HUVECs (16 […]
as §3, §4
the peritoneal cavity of neonatal C57BL/6 mice and STZ mice at indicated times, and the retinal vasculature and lysates for WB and qPCR were assessed at P17. […]

T1 sequence (P97481 whole entry): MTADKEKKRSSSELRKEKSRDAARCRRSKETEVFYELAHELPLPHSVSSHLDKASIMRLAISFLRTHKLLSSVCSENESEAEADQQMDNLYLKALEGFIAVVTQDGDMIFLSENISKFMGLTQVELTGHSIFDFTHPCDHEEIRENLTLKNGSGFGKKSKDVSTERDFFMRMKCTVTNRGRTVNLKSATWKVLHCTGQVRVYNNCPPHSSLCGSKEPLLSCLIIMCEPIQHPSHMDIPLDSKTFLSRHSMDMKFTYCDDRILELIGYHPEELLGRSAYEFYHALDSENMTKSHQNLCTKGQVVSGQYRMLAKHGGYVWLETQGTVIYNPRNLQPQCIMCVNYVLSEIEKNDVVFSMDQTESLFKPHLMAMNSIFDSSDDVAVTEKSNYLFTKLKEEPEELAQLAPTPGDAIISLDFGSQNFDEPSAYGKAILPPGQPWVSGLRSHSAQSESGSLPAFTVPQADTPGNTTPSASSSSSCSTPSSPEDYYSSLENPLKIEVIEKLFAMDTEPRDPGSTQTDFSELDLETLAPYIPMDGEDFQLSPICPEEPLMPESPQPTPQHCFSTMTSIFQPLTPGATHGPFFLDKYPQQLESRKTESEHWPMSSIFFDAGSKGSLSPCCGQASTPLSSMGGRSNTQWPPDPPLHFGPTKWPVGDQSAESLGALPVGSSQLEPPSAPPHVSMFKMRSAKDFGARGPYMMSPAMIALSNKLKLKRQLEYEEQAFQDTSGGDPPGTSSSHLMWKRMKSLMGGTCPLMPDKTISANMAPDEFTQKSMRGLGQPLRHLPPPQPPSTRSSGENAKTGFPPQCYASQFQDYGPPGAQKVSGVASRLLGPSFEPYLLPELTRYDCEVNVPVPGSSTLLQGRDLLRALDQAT
T2 sequence (Q61221 whole entry): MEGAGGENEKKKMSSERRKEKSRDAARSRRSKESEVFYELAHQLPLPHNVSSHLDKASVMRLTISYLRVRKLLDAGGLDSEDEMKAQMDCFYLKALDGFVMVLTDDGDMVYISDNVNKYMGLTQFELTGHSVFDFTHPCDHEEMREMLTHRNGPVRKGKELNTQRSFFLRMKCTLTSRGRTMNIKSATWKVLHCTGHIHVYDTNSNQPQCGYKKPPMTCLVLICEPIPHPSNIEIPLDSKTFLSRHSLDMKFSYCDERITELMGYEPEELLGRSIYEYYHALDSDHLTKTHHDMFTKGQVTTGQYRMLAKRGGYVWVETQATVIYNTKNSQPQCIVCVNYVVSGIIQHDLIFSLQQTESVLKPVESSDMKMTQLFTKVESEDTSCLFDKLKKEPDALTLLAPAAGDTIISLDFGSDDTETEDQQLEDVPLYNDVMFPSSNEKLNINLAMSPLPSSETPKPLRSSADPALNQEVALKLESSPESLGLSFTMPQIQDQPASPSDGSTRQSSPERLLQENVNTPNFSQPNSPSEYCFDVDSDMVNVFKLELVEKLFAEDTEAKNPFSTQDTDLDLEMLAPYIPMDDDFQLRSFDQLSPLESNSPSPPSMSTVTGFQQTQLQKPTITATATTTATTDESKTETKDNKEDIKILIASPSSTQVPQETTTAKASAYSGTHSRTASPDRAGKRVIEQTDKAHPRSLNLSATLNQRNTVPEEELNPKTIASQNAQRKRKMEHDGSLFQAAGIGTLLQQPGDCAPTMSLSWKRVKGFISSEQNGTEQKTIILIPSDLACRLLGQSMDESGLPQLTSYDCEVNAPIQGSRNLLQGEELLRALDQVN

For `Brc1ccc2c(-c3csc(-c4c[nH]c5c(Br)cccc45)n3)c[nH]c2c1` [32-134D, 4-(6-bromo-1H-indol-3-yl)-2-(7-bromo-1H-indol-3-yl)thiazole], at HIF-2α (single i.p. injection 20 mg/kg, P14), the “HIF-2α protein accumulation in OIR mice” value is recorded as “reduction”. For the same compound, the “accumulation of HIF-2α in OIR mice” value on HIF-2α (single intraocular injection 14 ng at P12, P14) was “effectively reduced”. Besides, the “HIF-1α expression in neurosensory retina of STZ mice” value on HIF-1α is recorded as “inhibits HIF”.
